Assay results: ChEMBL document CHEMBL1201862, “PubChem BioAssay data set” (2004)
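How tested: cells in 96-well plates exposed to compound for 48 hours at five concentrations. At the GI50, growth is halved.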 The source made the active and inactive calls. No stated cut-off is given here; in the data, active = GI50 up to about 1.1 µM and inactive = higher.

Experiments:
Test in all cases: NCI-60 cell line screen, 48 h
A498 = system: A498
A549 = system: A549
CAKI-1 = system: CAKI-1
HCT-116 = system: HCT-116
HCT-15 = system: HCT-15
HT-29 = system: HT-29
Hs-578T = system: Hs-578T
MCF7 = system: MCF7
MDA-MB-231 = system: MDA-MB-231
NCI-H23 = system: NCI-H23
NCI-H460 = system: NCI-H460
SK-MEL-28 = system: SK-MEL-28
SK-OV-3 = system: SK-OV-3
SN12C = system: SN12C
SNB-19 = system: SNB-19
TK-10 = system: TK-10
U-251 = system: U-251
UACC-257 = system: UACC-257
SR = system: SR

Row | SMILES | GI50 (A498) | GI50 (A549) | GI50 (CAKI-1) | GI50 (HCT-116) | GI50 (HCT-15) [µM] | GI50 (HT-29) | GI50 (Hs-578T) | GI50 (MCF7) | GI50 (MDA-MB-231) | GI50 (NCI-H23) | GI50 (NCI-H460) | GI50 (SK-MEL-28) | GI50 (SK-OV-3) | GI50 (SN12C) | GI50 (SNB-19) | GI50 (TK-10) | GI50 (U-251) | GI50 (UACC-257) | GI50 (SR)
1 | CC(C)(C)c1ccc2c(c1)C(=O)c1ccccc1C2=O | 41.3 µM (inactive) | 38.6 µM (inactive) | > 100 µM (inactive) | 76 µM (inactive) | 39.7 | 27.2 µM (inactive) | 90.2 µM (inactive) | 20.6 µM (inactive) | > 100 µM (inactive) | 61.9 µM (inactive) | 31.3 µM (inactive) | 98.2 µM (inactive) | > 100 µM (inactive) | 85.3 µM (inactive) | > 100 µM (inactive) | 86.3 µM (inactive) | 50 µM (inactive) | 40.2 µM (inactive) | 
2 | COc1ccc(/C(=N/OCCCC(=O)O)c2cccs2)cc1 | > 100 µM (inactive) | > 100 µM (inactive) | > 100 µM (inactive) | > 100 µM (inactive) | > 100 | > 100 µM (inactive) | > 100 µM (inactive) | > 100 µM (inactive) | > 100 µM (inactive) | > 100 µM (inactive) | > 100 µM (inactive) |  | > 100 µM (inactive) | > 100 µM (inactive) | > 100 µM (inactive) | > 100 µM (inactive) | > 100 µM (inactive) | > 100 µM (inactive) | 
3 | O=C1/C(=C/c2ccc(OC(=O)c3ccccc3)cc2)CCC/C1=C\c1ccc(OC(=O)c2ccccc2)cc1 |  | > 100 µM (inactive) | > 100 µM (inactive) | > 100 µM (inactive) | > 100 | > 100 µM (inactive) | > 100 µM (inactive) | > 100 µM (inactive) | > 100 µM (inactive) | > 100 µM (inactive) | > 100 µM (inactive) | > 100 µM (inactive) |  | > 100 µM (inactive) | > 100 µM (inactive) | > 100 µM (inactive) | > 100 µM (inactive) | > 100 µM (inactive) | > 100 µM (inactive)
4 | CCOc1nnnc2[nH]cnc12 | > 100 µM (inactive) | > 100 µM (inactive) | > 100 µM (inactive) | > 100 µM (inactive) | > 100 | > 100 µM (inactive) | > 100 µM (inactive) | > 100 µM (inactive) | > 100 µM (inactive) | > 100 µM (inactive) | > 100 µM (inactive) | > 100 µM (inactive) | > 100 µM (inactive) | > 100 µM (inactive) |  | > 100 µM (inactive) | > 100 µM (inactive) | > 100 µM (inactive) | 
5 | COC(=O)C(C)(Cc1ccc2c(c1)nnn2C(C)=O)NC(C)=O (configuration not stated) |  | > 100 µM (inactive) | > 100 µM (inactive) | > 100 µM (inactive) | > 100 | > 100 µM (inactive) | > 100 µM (inactive) | > 100 µM (inactive) | > 100 µM (inactive) | > 100 µM (inactive) | > 100 µM (inactive) | > 100 µM (inactive) | > 100 µM (inactive) |  | > 100 µM (inactive) | > 100 µM (inactive) |  | > 100 µM (inactive) | > 100 µM (inactive)
6 | COc1cc(Cc2nccc3cc(OC)c(OC)cc23)c(/N=N/N(C)C)cc1OC |  | 23.4 µM (inactive) | 5.45 µM (inactive) | 5.08 µM (inactive) | 5 | 10.4 µM (inactive) | 18.4 µM (inactive) | 14.6 µM (inactive) | 14.4 µM (inactive) | 19.3 µM (inactive) | 7.23 µM (inactive) | 11.2 µM (inactive) | 18.5 µM (inactive) | 14.3 µM (inactive) | 30.6 µM (inactive) | 20.4 µM (inactive) | 19.1 µM (inactive) | 20.3 µM (inactive) | 
